In ChEMBL document CHEMBL1141090, “Rational design, synthesis, and characterization of novel inhibitors for human beta1,4-galactosyltransferase” (J Med Chem, 2005):

How the values were obtained:
[1] = biological target: T1, Beta-1,4-galactosyltransferase 1 (Homo sapiens, UniProt P15291); assay: Inhibitory constant against human Beta-1,4-galactosyltransferase I; N.I. is inactive
T1 sequence (P15291 whole entry): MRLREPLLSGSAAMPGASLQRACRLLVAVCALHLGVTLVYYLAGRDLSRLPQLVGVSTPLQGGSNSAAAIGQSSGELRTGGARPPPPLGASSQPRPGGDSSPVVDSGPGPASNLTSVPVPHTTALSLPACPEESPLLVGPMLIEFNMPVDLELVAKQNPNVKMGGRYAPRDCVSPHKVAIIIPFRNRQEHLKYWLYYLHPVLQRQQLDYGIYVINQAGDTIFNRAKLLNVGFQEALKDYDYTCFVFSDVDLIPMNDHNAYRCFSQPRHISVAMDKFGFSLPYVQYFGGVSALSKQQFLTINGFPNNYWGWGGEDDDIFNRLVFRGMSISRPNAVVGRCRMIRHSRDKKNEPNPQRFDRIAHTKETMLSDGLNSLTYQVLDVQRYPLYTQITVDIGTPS

[2] = biological target: T1, Beta-1,4-galactosyltransferase 1; assay: Inhibitory constant against human recombinant Beta-1,4-galactosyltransferase I; N.I. is inactive

Row | Ki [1] | Ki [2] | SMILES
1 | Not Active |  | O=c1ccn([C@@H]2O[C@H](COP(=O)(O)OP(=O)(O)O[C@H]3O[C@@H](CNCCCCCCOCc4ccc5ccccc5c4)[C@H](O)[C@H](O)[C@@H]3O)[C@@H](O)[C@H]2O)c(=O)[nH]1
2 |  | Not Active | O=c1ccn([C@@H]2O[C@H](COP(=O)(O)OP(=O)(O)O[C@H]3O[C@@H](CNCc4cccc5ccccc45)[C@H](O)[C@H](O)[C@@H]3O)[C@@H](O)[C@H]2O)c(=O)[nH]1
